pIC50: −log10 of the molar value. Where a SMILES comes first, the peptide text is derived from it. Bridges are numbered along the chain shown (N, C = ends). [ ]: non-standard residue; d: D form. The star is where a group is joined. Phe(4-COOH) = N[C@@H](Cc1ccc(C(=O)O)cc1)C(=O)O; Bip = N[C@@H](Cc1ccc(-c2ccccc2)cc1)C(=O)O; Phe(3-F) = N[C@@H](Cc1cccc(F)c1)C(=O)O; Phe(3-Me) = Cc1cccc(C[C@H](N)C(=O)O)c1; Val(3-OH) = CC(C)(O)[C@H](N)C(=O)O; Hexyloxycarbonyl = CCCCCCOC(=O)*; 4Pal = N[C@@H](Cc1ccncc1)C(=O)O; Cha = N[C@@H](CC1CCCCC1)C(=O)O; Carboxymethyl = O=C(O)C*; NMeA = CN[C@@H](C)C(=O)O; Orn = NCCC[C@H](N)C(=O)O; Aun = NCCCCCCCCCCC(=O)O; Dab = NCC[C@H](N)C(=O)O; Abu = CC[C@H](N)C(=O)O; Dap = NC[C@H](N)C(=O)O; AEEA = NCCOCCOCC(=O)O
Target: T1, PD-1/PD-L1 interaction (PE-labeled human PD-L1-Ig binding to Jurkat cell line over-expressing human PD-1) (Homo sapiens, UniProt Q15116)
T1 construct: expressed in transfected cells; host or cells: Jurkat
Assay: Jurkat-PD-1 Cell Binding High-Content Screening Assay (CBA)
Details: Jurkat-hPD-1 cells, PE-labeled PD-L1-Ig 20 nM final; read-out: Jurkat HPD1 PDL1 IC50
How it was run: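 Compound is added first to the PD-1-expressing Jurkat cells and held 2 h at 37 °C in serum-containing DMEM. The fluorescent PD-L1 fusion follows at 20 nM final for 1 h. Fixed, Hoechst-stained cells are then imaged for bound label.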

T1 sequence (Q15116 25-288): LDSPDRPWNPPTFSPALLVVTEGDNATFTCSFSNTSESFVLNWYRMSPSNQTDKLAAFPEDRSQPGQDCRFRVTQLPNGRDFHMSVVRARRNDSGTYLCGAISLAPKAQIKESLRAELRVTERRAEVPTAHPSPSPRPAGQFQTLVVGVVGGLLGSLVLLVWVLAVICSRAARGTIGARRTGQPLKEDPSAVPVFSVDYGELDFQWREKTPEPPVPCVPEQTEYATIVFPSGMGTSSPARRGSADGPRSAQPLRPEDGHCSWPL

Row | SMILES | pIC50
1 | CC[C@@H]1NC(=O)[C@H](Cc2cccc(C)c2)NC(=O)[C@H](CC(=O)O)NC(=O)[C@H](Cc2ccc(OCC(=O)O)cc2)NC(=O)[C@H](CCN)NC(=O)CSC[C@@H](C(=O)N[C@@H](CCN)C(=O)NCCCCCCCCCCC(=O)O)NC(=O)[C@H](CO)NC(=O)[C@H](C(C)(C)O)NC(=O)[C@H](CC2CCCCC2)NC(=O)[C@H](CCN)NC(=O)[C@@H](CC(C)C)NC(=O)[C@H](C)N(C)C(=O)[C@H](Cc2ccc(OCC(=O)O)cc2)NC(=O)[C@H](Cc2ccc(-c3ccccc3)cc2)NC1=O [Example 1308] ({CH2CO}-[Dab]Y(Carboxymethyl)D[Phe(3-Me)][Abu][Bip]Y(Carboxymethyl)[NMeA][dL][Dab][Cha][Val(3-OH)]SC[Dab][Aun]-OH; thioether N-14) | 8.15
2 | Cc1cccc(C[C@@H]2NC(=O)[C@H](CC(=O)O)NC(=O)[C@H](Cc3ccc(C(=O)O)cc3)NC(=O)[C@H](Cc3ccncc3)NC(=O)CSC[C@@H](C(=O)N[C@@H](CCN)C(=O)NCCCCCCCCCCC(=O)O)NC(=O)[C@H](CO)NC(=O)[C@H](C(C)(C)O)NC(=O)[C@H](CC3CCCCC3)NC(=O)[C@H](CCN)NC(=O)[C@@H](CC(C)C)NC(=O)[C@H](C)N(C)C(=O)[C@H](Cc3ccc(OCC(=O)O)cc3)NC(=O)[C@H](Cc3ccc(-c4ccccc4)cc3)NC(=O)[C@H](Cc3cccc(F)c3)NC2=O)c1 [Example 1309] ({CH2CO}-[4Pal][Phe(4-COOH)]D[Phe(3-Me)][Phe(3-F)][Bip]Y(Carboxymethyl)[NMeA][dL][Dab][Cha][Val(3-OH)]SC[Dab][Aun]-OH; thioether N-14) | 7.90
3 | Cc1cccc(C[C@@H]2NC(=O)[C@H](CC(=O)O)NC(=O)[C@H](Cc3ccc(OCC(=O)O)cc3)NC(=O)[C@H](CCN)NC(=O)CSC[C@@H](C(=O)N[C@@H](CCN)C(=O)NCCCCCCCCCCC(=O)O)NC(=O)[C@H](CO)NC(=O)[C@H](C(C)(C)O)NC(=O)[C@H](CC3CCCCC3)NC(=O)[C@H](CCN)NC(=O)[C@@H](CC(C)C)NC(=O)[C@H](C)N(C)C(=O)[C@H](Cc3ccc(OCC(=O)O)cc3)NC(=O)[C@H](Cc3ccc(-c4ccccc4)cc3)NC(=O)[C@H](Cc3cccc(F)c3)NC2=O)c1 [Example 1310] ({CH2CO}-[Dab]Y(Carboxymethyl)D[Phe(3-Me)][Phe(3-F)][Bip]Y(Carboxymethyl)[NMeA][dL][Dab][Cha][Val(3-OH)]SC[Dab][Aun]-OH; thioether N-14) | 7.51
4 | CCCCCCOC(=O)NCC[C@@H]1NC(=O)[C@@H](CC(C)C)NC(=O)[C@H](C)N(C)C(=O)[C@H](Cc2ccc(OCC(=O)O)cc2)NC(=O)[C@H](Cc2ccc(-c3ccccc3)cc2)NC(=O)[C@H](Cc2ccc(OCC(=O)O)cc2)NC(=O)[C@H](Cc2cccc(C)c2)NC(=O)[C@H](CC(=O)O)NC(=O)[C@H](Cc2ccc(OCC(=O)O)cc2)NC(=O)[C@H]([C@@H](C)O)NC(=O)CSC[C@@H](C(=O)N[C@@H](CCN)C(=O)NCCOCCOCC(=O)NCCCCCCCCCCC(=O)O)NC(=O)[C@H](CCC(=O)O)NC(=O)[C@H](C(C)C)NC(=O)[C@H](CC2CCCCC2)NC1=O [Example 1311] ({CH2CO}-TY(Carboxymethyl)D[Phe(3-Me)]Y(Carboxymethyl)[Bip]Y(Carboxymethyl)[NMeA][dL][Dab](Hexyloxycarbonyl)[Cha]VEC[Dab][AEEA][Aun]-OH; thioether N-14) | 6.61
5 | Cc1cccc(C[C@@H]2NC(=O)[C@H](CC(=O)O)NC(=O)[C@H](Cc3ccc(OCC(=O)O)cc3)NC(=O)[C@H](CN)NC(=O)CSC[C@@H](C(=O)N[C@@H](CCN)C(=O)NCCOCCOCC(=O)NCCCCCCCCCCC(=O)O)NC(=O)[C@H](CCCN)NC(=O)[C@H](C(C)C)NC(=O)[C@H](CC3CCCCC3)NC(=O)[C@H](CCN)NC(=O)[C@@H](CC(C)C)NC(=O)[C@H](C)N(C)C(=O)[C@H](Cc3ccc(O)cc3)NC(=O)[C@H](Cc3ccc(-c4ccccc4)cc3)NC(=O)[C@H](Cc3ccc(O)cc3)NC2=O)c1 [Example 1312] ({CH2CO}-[Dap]Y(Carboxymethyl)D[Phe(3-Me)]Y[Bip]Y[NMeA][dL][Dab][Cha]V[Orn]C[Dab][AEEA][Aun]-OH; thioether N-14) | 7.56
6 | Cc1cccc(C[C@@H]2NC(=O)[C@H](CC(=O)O)NC(=O)[C@H](Cc3ccc(OCC(=O)O)cc3)NC(=O)[C@H](CN)NC(=O)CSC[C@@H](C(=O)N[C@@H](CCN)C(=O)NCCCCCCCCCCC(=O)O)NC(=O)[C@H](CCCN)NC(=O)[C@H](C(C)C)NC(=O)[C@H](CC3CCCCC3)NC(=O)[C@H](CCN)NC(=O)[C@@H](CC(C)C)NC(=O)[C@H](C)N(C)C(=O)[C@H](Cc3ccc(O)cc3)NC(=O)[C@H](Cc3ccc(-c4ccccc4)cc3)NC(=O)[C@H](Cc3ccc(O)cc3)NC2=O)c1 [Example 1313] ({CH2CO}-[Dap]Y(Carboxymethyl)D[Phe(3-Me)]Y[Bip]Y[NMeA][dL][Dab][Cha]V[Orn]C[Dab][Aun]-OH; thioether N-14) | 7.55
7 | Cc1cccc(C[C@@H]2NC(=O)[C@H](CC(=O)O)NC(=O)[C@H](Cc3ccc(OCC(=O)O)cc3)NC(=O)[C@H](CN)NC(=O)CSC[C@@H](C(=O)N[C@@H](CCN)C(=O)NCCOCCOCC(=O)NCCCCCCCCCCC(=O)O)NC(=O)[C@H](CCCN)NC(=O)[C@H](C(C)C)NC(=O)[C@H](CC3CCCCC3)NC(=O)[C@H](CCN)NC(=O)[C@@H](CC(C)C)NC(=O)[C@H](C)N(C)C(=O)[C@H](Cc3ccc(O)cc3)NC(=O)[C@H](Cc3ccc(-c4ccccc4)cc3)NC(=O)[C@H](C(C)C)NC2=O)c1 [Example 1314] ({CH2CO}-[Dap]Y(Carboxymethyl)D[Phe(3-Me)]V[Bip]Y[NMeA][dL][Dab][Cha]V[Orn]C[Dab][AEEA][Aun]-OH; thioether N-14) | 8.15
8 | Cc1cccc(C[C@@H]2NC(=O)[C@H](CC(=O)O)NC(=O)[C@H](Cc3ccc(OCC(=O)O)cc3)NC(=O)[C@H](CN)NC(=O)CSC[C@@H](C(=O)N[C@@H](CCN)C(=O)NCCCCCCCCCCC(=O)O)NC(=O)[C@H](CCCN)NC(=O)[C@H](C(C)C)NC(=O)[C@H](CC3CCCCC3)NC(=O)[C@H](CCN)NC(=O)[C@@H](CC(C)C)NC(=O)[C@H](C)N(C)C(=O)[C@H](Cc3ccc(O)cc3)NC(=O)[C@H](Cc3ccc(-c4ccccc4)cc3)NC(=O)[C@H](C(C)C)NC2=O)c1 [Example 1315] ({CH2CO}-[Dap]Y(Carboxymethyl)D[Phe(3-Me)]V[Bip]Y[NMeA][dL][Dab][Cha]V[Orn]C[Dab][Aun]-OH; thioether N-14) | 8.00
9 | Cc1cccc(C[C@@H]2NC(=O)[C@H](CC(=O)O)NC(=O)[C@H](Cc3ccc(OCC(=O)O)cc3)NC(=O)[C@H](CN)NC(=O)CSC[C@@H](C(=O)NCCOCCOCC(=O)NCCCCCCCCCCC(=O)O)NC(=O)[C@H](CCCN)NC(=O)[C@H](C(C)C)NC(=O)[C@H](CC3CCCCC3)NC(=O)[C@H](CCN)NC(=O)[C@@H](CC(C)C)NC(=O)[C@H](C)N(C)C(=O)[C@H](Cc3ccc(O)cc3)NC(=O)[C@H](Cc3ccc(-c4ccccc4)cc3)NC(=O)[C@H](Cc3ccc(O)cc3)NC2=O)c1 [Example 1316] ({CH2CO}-[Dap]Y(Carboxymethyl)D[Phe(3-Me)]Y[Bip]Y[NMeA][dL][Dab][Cha]V[Orn]C[AEEA][Aun]-OH; thioether N-14) | 7.01

Continued, values first:

Row | pIC50 | SMILES
10 | 7.44 | Cc1cccc(C[C@@H]2NC(=O)[C@H](CC(=O)O)NC(=O)[C@H](Cc3ccc(OCC(=O)O)cc3)NC(=O)[C@H](CN)NC(=O)CSC[C@@H](C(=O)NCCOCCOCC(=O)NCCCCCCCCCCC(=O)O)NC(=O)[C@H](CCCN)NC(=O)[C@H](C(C)C)NC(=O)[C@H](CC3CCCCC3)NC(=O)[C@H](CCN)NC(=O)[C@@H](CC(C)C)NC(=O)[C@H](C)N(C)C(=O)[C@H](Cc3ccc(O)cc3)NC(=O)[C@H](Cc3ccc(-c4ccccc4)cc3)NC(=O)[C@H](C(C)C)NC2=O)c1 [Example 1317] ({CH2CO}-[Dap]Y(Carboxymethyl)D[Phe(3-Me)]V[Bip]Y[NMeA][dL][Dab][Cha]V[Orn]C[AEEA][Aun]-OH; thioether N-14)
11 | 7.22 | Cc1cccc(C[C@@H]2NC(=O)[C@H](CC(=O)O)NC(=O)[C@H](Cc3ccc(OCC(=O)O)cc3)NC(=O)[C@H](CN)NC(=O)CSC[C@@H](C(=O)NCCCCCCCCCCC(=O)O)NC(=O)[C@H](CCCN)NC(=O)[C@H](C(C)C)NC(=O)[C@H](CC3CCCCC3)NC(=O)[C@H](CCN)NC(=O)[C@@H](CC(C)C)NC(=O)[C@H](C)N(C)C(=O)[C@H](Cc3ccc(O)cc3)NC(=O)[C@H](Cc3ccc(-c4ccccc4)cc3)NC(=O)[C@H](Cc3ccc(O)cc3)NC2=O)c1 [Example 1318] ({CH2CO}-[Dap]Y(Carboxymethyl)D[Phe(3-Me)]Y[Bip]Y[NMeA][dL][Dab][Cha]V[Orn]C[Aun]-OH; thioether N-14)
12 | 7.38 | Cc1cccc(C[C@@H]2NC(=O)[C@H](CC(=O)O)NC(=O)[C@H](Cc3ccc(OCC(=O)O)cc3)NC(=O)[C@H](CN)NC(=O)CSC[C@@H](C(=O)NCCCCCCCCCCC(=O)O)NC(=O)[C@H](CCCN)NC(=O)[C@H](C(C)C)NC(=O)[C@H](CC3CCCCC3)NC(=O)[C@H](CCN)NC(=O)[C@@H](CC(C)C)NC(=O)[C@H](C)N(C)C(=O)[C@H](Cc3ccc(O)cc3)NC(=O)[C@H](Cc3ccc(-c4ccccc4)cc3)NC(=O)[C@H](C(C)C)NC2=O)c1 [Example 1319] ({CH2CO}-[Dap]Y(Carboxymethyl)D[Phe(3-Me)]V[Bip]Y[NMeA][dL][Dab][Cha]V[Orn]C[Aun]-OH; thioether N-14)
13 | 7.82 | Cc1cccc(C[C@@H]2NC(=O)[C@H](CC(=O)O)NC(=O)[C@H](Cc3ccc(OCC(=O)O)cc3)NC(=O)[C@H](CN)NC(=O)CSC[C@@H](C(=O)N[C@@H](CCN)C(=O)NCCCCCCCCCCC(=O)O)NC(=O)[C@H]([C@@H](C)O)NC(=O)[C@H](C(C)C)NC(=O)[C@H](CC3CCCCC3)NC(=O)[C@H](CCN)NC(=O)[C@@H](CC(C)C)NC(=O)[C@H](C)N(C)C(=O)[C@H](Cc3ccc(O)cc3)NC(=O)[C@H](Cc3ccc(-c4ccccc4)cc3)NC(=O)[C@H](C(C)C)NC2=O)c1 [Example 1320] ({CH2CO}-[Dap]Y(Carboxymethyl)D[Phe(3-Me)]V[Bip]Y[NMeA][dL][Dab][Cha]VTC[Dab][Aun]-OH; thioether N-14)

— patent US20260070945A1, “MACROCYCLIC IMMUNOMODULATORS” (Bristol-Myers Squibb Company, priority 2022, published 2026)
